Measured values: PubChem BioAssay (NCI)
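Where inhibition never reached the appropriate level, the endpoint shown equals the highest concentration tested. Otherwise, values were interpolated linearly from a five-concentration, 48-hour dose response in 96-well plates. Abbreviation: GI50, concentration required for 50% inhibition of growth. TGI is the concentration that stops growth completely.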

How the values were obtained:
Experiment in all cases: DTP human tumour cell line panel, 48 h
MALME-3M melanoma = tested on: MALME-3M melanoma
RXF 393 renal = tested on: RXF 393 renal
K-562 leukemia = tested on: K-562 leukemia
NCI-H522 lung = tested on: NCI-H522 lung
A549 NSCLC = tested on: A549 NSCLC
IGROV1 ovarian = tested on: IGROV1 ovarian
SK-MEL-5 melanoma = tested on: SK-MEL-5 melanoma
SF-295 CNS = tested on: SF-295 CNS
MDA-N = tested on: MDA-N
HOP-62 NSCLC = tested on: HOP-62 NSCLC
SR leukemia = tested on: SR leukemia

Row | Compound | TGI (MALME-3M melanoma) | TGI (RXF 393 renal) | TGI (K-562 leukemia) | TGI (NCI-H522 lung) | TGI (A549 NSCLC) | TGI (IGROV1 ovarian) | TGI (SK-MEL-5 melanoma) | TGI (SF-295 CNS) | TGI (MDA-N) | TGI (HOP-62 NSCLC) | TGI (SR leukemia) | GI50 (SK-MEL-5 melanoma) | GI50 (SF-295 CNS) | GI50 (MDA-N)
1 | NC(N)=NS(=O)(=O)c1ccc(NNc2c3ccccc3nc3c(C(=O)Nc4ccc(S(=O)(=O)Nc5ncccn5)cc4)cccc23)cc1 | 67.8 µM | > 100 µM | > 100 µM | 45.9 µM | > 100 µM | 44.6 µM | > 100 µM | > 100 µM | > 100 µM | > 100 µM |  |  |  | 
2 | CCOC(=O)Nc1[nH]cc(-c2ccccc2)c1C#N | > 100 µM |  | > 100 µM | > 100 µM | > 100 µM | > 100 µM | > 100 µM | > 100 µM | > 100 µM | > 100 µM | > 100 µM |  |  | 
3 | CC1(C)OC(C(=O)Nc2cc3c4ccccc4ccc3c3ccccc23)C(C(=O)N2CCCCC2)O1 (stereo not drawn) | > 100 µM | > 27.7 µM | > 100 µM | > 28.3 µM | > 100 µM | > 100 µM | > 100 µM | > 100 µM | > 100 µM | > 100 µM |  |  |  | 
4 | Nc1c(C(=O)O)nnc2ccc(Cl)cc12 | > 100 µM |  | > 100 µM | > 100 µM | > 100 µM | > 100 µM | > 100 µM | > 100 µM | > 100 µM | > 100 µM | > 100 µM |  |  | 
5 | COc1cc(C2C3C=CC=C4CC=CC(=C43)C3CCC(=O)N32)cc(OC)c1OC (stereo not drawn) |  |  | > 100 µM | > 100 µM | > 100 µM | > 100 µM |  | > 100 µM |  | > 100 µM | > 100 µM |  |  | 
6 | C=CCCON(C(=O)OC(C)(C)C)C(C)(C)C | > 100 µM | > 100 µM | > 100 µM | > 100 µM | > 100 µM | > 100 µM | > 100 µM | > 100 µM | > 100 µM | > 100 µM |  |  |  | 
7 | Cc1ccc(-c2c(C#N)c(-c3ccc(C)cc3)n(NS(=O)(=O)c3ccccc3)c(=O)c2C#N)cc1 | > 100 µM | > 100 µM | > 100 µM | > 100 µM | > 100 µM | > 100 µM | 31.2 µM | > 100 µM |  | > 100 µM |  |  |  | 
8 | Cc1ccnc2[nH]c(-c3ccc4ccccc4c3)cc(=O)c12 | 18.6 µM |  | 6.52 µM | 3.42 µM | 16.1 µM | 11.1 µM | 12.7 µM | 10.9 µM | 0.448 µM | 12.6 µM | 0.919 µM | 0.437 µM | 1.49 µM | 0.206 µM
9 | CC1=NN(c2nc(N)nc(/C(C#N)=C\c3ccc([N+](=O)[O-])s3)n2)C(C)(C)C1 | 3.87 µM |  | 0.355 µM | 0.354 µM | 16.5 µM | 0.287 µM | 1.84 µM | 23.1 µM | 2.6 µM | 1.75 µM | 0.152 µM |  |  | 
10 | CN(CCSCCN(C)C(=O)OC(C)(C)C)C(=O)OC(C)(C)C | > 100 µM |  | > 100 µM | > 100 µM | > 100 µM | > 100 µM | > 100 µM | > 100 µM | > 100 µM | > 100 µM | > 100 µM |  |  | 
11 | CCOC(=O)CCC(NC(=O)Cc1ccc(Nc2nc3cc(F)c(F)cc3nc2C(=O)OCC)cc1)C(=O)OCC (stereo not drawn) | > 100 µM |  | > 100 µM | > 100 µM | > 100 µM |  | > 100 µM | > 100 µM | > 100 µM | > 100 µM | 55.9 µM |  |  | 
12 | CC1(C)[C@@H](Cn2ccc(=O)[nH]c2=O)CC[C@@]1(C)CO |  | > 100 µM | > 100 µM |  | > 100 µM |  | > 100 µM | > 100 µM | > 100 µM | > 100 µM |  |  |  | 
13 | CC(=O)OC(OC(C)=O)c1ccc2ccc3cccc4ccc1c2c34 | 54.7 µM | 25.3 µM | 96.2 µM |  | > 100 µM | 54.1 µM | 32.8 µM | 37.5 µM | 36.9 µM |  | > 100 µM |  |  | 
14 | O=c1oc2ccccc2cc1-c1cc2ccccn2c1 |  | > 100 µM | > 100 µM | > 100 µM | > 100 µM | > 100 µM | > 100 µM | > 100 µM | > 100 µM | > 100 µM |  |  |  | 
15 | CO[C@@]12C[C@@H](C)C3=CCC(C)=C3CC1=C(C)C(=O)O2 | > 100 µM |  | > 100 µM |  |  | > 100 µM | > 100 µM | > 100 µM |  |  | > 100 µM |  |  | 
16 | CC1(C)/C(=N\NC(N)=O)C2CCC1C2 (stereo not drawn) | > 100 µM |  | > 100 µM | > 100 µM | > 100 µM | > 100 µM | > 100 µM | > 100 µM | > 100 µM | > 100 µM | > 100 µM |  |  | 
17 | CCCNC(=O)NNC(=O)c1c[nH]c2nc(C)ccc2c1=O | > 100 µM | > 100 µM | > 100 µM | > 100 µM | > 100 µM | > 100 µM | > 100 µM | > 100 µM | > 100 µM | > 100 µM |  |  |  | 

Row | Compound | TGI (MALME-3M melanoma) | TGI (RXF 393 renal) | TGI (K-562 leukemia) | TGI (NCI-H522 lung) | TGI (A549 NSCLC) | TGI (IGROV1 ovarian) | TGI (SK-MEL-5 melanoma) | TGI (SF-295 CNS) | TGI (MDA-N) | TGI (HOP-62 NSCLC) | TGI (SR leukemia) | GI50 (SK-MEL-5 melanoma) | GI50 (SF-295 CNS) | GI50 (MDA-N)
18 | CCOC(=O)NC(Nc1ccc(C)cc1)(C(F)(F)F)C(F)(F)F | > 100 µM |  | > 100 µM | > 100 µM | > 100 µM | > 100 µM | > 100 µM | > 100 µM | > 100 µM | > 100 µM |  |  |  | 
19 | CC(=O)Nc1ccc(N=Nc2c(O)c(S(=O)(=O)O)cc3cc(S(=O)(=O)O)ccc23)cc1 | > 100 µM | > 100 µM | > 100 µM | > 100 µM | > 100 µM | > 100 µM | > 100 µM | > 100 µM | > 100 µM | > 100 µM |  |  |  | 
20 | CCCCCCNc1n[nH]c(=O)c2c1nnn2Cc1ccccc1 | > 100 µM |  | > 100 µM |  | > 100 µM |  | > 100 µM | > 100 µM | > 100 µM | > 100 µM | > 100 µM |  |  | 
21 | O=C(N/N=C(\c1ccccc1)c1ccccn1)NC1CCCCC1 | > 100 µM |  | > 100 µM | > 100 µM | > 100 µM | > 100 µM | > 100 µM | > 100 µM | > 100 µM | > 100 µM | > 100 µM |  |  | 
22 | Cc1ccc(-n2cnc(C(=N)C#N)c2N)cc1 | > 100 µM |  | > 100 µM | > 100 µM | > 100 µM | > 100 µM | > 100 µM | > 100 µM | > 100 µM | > 100 µM | > 100 µM |  |  | 
23 | C[C@H]1[C@H]2[C@H]3CC[C@@H]4[C@@]5(C)CC[C@H](O)C(C)(C)[C@@H]5CC[C@@]4(C)[C@]3(C)C[C@H](O)[C@@]2(C)C[C@H]2O[C@]21C | 39.6 µM | 35.1 µM |  | 48.9 µM | 41.7 µM | 71.1 µM | 42.6 µM | 37.4 µM | 46.5 µM | 57.7 µM |  |  |  | 
24 | N#Cc1n[nH]n(-c2ccc(Br)cc2)c1=O | > 100 µM | > 100 µM | > 100 µM | > 100 µM | > 100 µM | > 100 µM |  | > 100 µM | > 100 µM | > 100 µM |  |  |  | 
25 | Cn1c(=O)c2c(ncn2CCNC(CO)C(O)c2ccc([N+](=O)[O-])cc2)n(C)c1=O (stereo not drawn) | > 100 µM |  | > 100 µM | > 100 µM | > 100 µM |  | > 100 µM | > 100 µM | > 100 µM | > 100 µM | > 100 µM |  |  | 
26 | CCN(CC)Cc1ccc(C(=S)Nc2ccc(Cl)cc2)s1 |  |  | 18.9 µM | 25 µM | 25.4 µM | 24.1 µM | 16.9 µM | 25.2 µM | 23.6 µM | 32.1 µM | 24.7 µM |  |  | 
27 | CCO/C(O)=C(/C(=N)N1CCOCC1)C(=O)Nc1ccc(F)cc1 | > 100 µM | > 100 µM | > 100 µM | > 100 µM | > 100 µM | > 100 µM |  | > 100 µM | > 100 µM | > 100 µM |  |  |  | 
28 | O=C(O)C(O)C(O)C(O)C(O)c1nc2ccccc2s1 (stereo not drawn) | 36.7 µM | 32.6 µM |  | 27.1 µM | 39.3 µM | 24.7 µM | 74.1 µM | 31.9 µM | 33.2 µM | 33.5 µM |  |  |  | 
29 | CC(C)(C)OC(=O)N(CCCCN(CCCNC(=O)C(F)(F)F)C(=O)OC(C)(C)C)CCCNC(=O)C(F)(F)F |  | > 100 µM | > 100 µM | > 100 µM | > 100 µM | > 100 µM | > 100 µM | > 100 µM |  | > 100 µM | > 100 µM |  |  | 
30 | c1ccc(N=C(N2CCCC2)N(CCN2CCCC2)c2ccccc2)cc1 | > 100 µM |  | > 100 µM | > 100 µM | > 100 µM | > 100 µM | 24.5 µM | 35.6 µM |  | > 100 µM | > 100 µM |  |  | 
31 | COc1cc2c(cc1OC)C(CC1=C(c3ccccc3)CN3CCc4cc(OC)c(OC)cc4C3C1)NCC2 (stereo not drawn) | 35.1 µM | 17.6 µM | 30.1 µM |  | 33.5 µM | 32.8 µM | 31.3 µM | 31.1 µM |  |  |  |  |  | 
32 | O=C1c2ccccc2C(=O)c2c(NCC(O)CO)ccc(NCC(O)CO)c21 (stereo not drawn) | > 100 µM |  | > 100 µM | > 100 µM | > 100 µM | > 100 µM | > 100 µM |  | > 100 µM | > 100 µM | > 100 µM |  |  | 
33 | COc1cccc(CCNC(=O)Cc2ccccc2CCO)c1 |  | > 100 µM | > 100 µM | > 100 µM | > 100 µM | > 100 µM | > 100 µM | > 100 µM |  | > 100 µM | > 100 µM |  |  | 
